According to patent publication US20170008928A1, “NOVEL PEPTIDES AND PEPTIDE DERIVATIVES AND USES THEREOF” (Novo Nordisk A/S, priority 2015, published 2017):
Read-outs that look alike come from different tables or passages of the source. Starred links: 1 amine or outer side, 2 acyl side, 3 side chain; linkers in the order of their positions; H or OH if unused. Non-standard residues stand in square brackets, D forms with d. Residues, ends and D or L forms follow the SMILES beside them. *: point of attachment. Phe(4-CH2SO3H) = N[C@@H](Cc1ccc(CS(=O)(=O)O)cc1)C(=O)O; sY = N[C@@H](Cc1ccc(OS(=O)(=O)O)cc1)C(=O)O; C18 diacid = O=C(O)CCCCCCCCCCCCCCCCC(=O)*; γGlu = O=C(O)[C@H](CCC(=O)[*:2])N[*:1]; Met(O2) = CS(=O)(=O)CC[C@H](N)C(=O)O; NMeF = CN[C@@H](Cc1ccccc1)C(=O)O; dNMeD = CN[C@H](CC(=O)O)C(=O)O; Nle = CCCC[C@H](N)C(=O)O; AEEA = NCCOCCOCC(=O)O

What was measured:
[1] = target: T1, human cholecystokinin-2 receptor (CCK-2R) (Homo sapiens, UniProt P32239); assay: In vitro potency on CCK-2R, whole cell functional assay (IP1 accumulation, IP-One HTRF); format: cell-based
T1 construct: host or cells: 1321-N1 cells (plasma membranes prepared by Evotec AG Hamburg)
T1 sequence (P32239 1-447): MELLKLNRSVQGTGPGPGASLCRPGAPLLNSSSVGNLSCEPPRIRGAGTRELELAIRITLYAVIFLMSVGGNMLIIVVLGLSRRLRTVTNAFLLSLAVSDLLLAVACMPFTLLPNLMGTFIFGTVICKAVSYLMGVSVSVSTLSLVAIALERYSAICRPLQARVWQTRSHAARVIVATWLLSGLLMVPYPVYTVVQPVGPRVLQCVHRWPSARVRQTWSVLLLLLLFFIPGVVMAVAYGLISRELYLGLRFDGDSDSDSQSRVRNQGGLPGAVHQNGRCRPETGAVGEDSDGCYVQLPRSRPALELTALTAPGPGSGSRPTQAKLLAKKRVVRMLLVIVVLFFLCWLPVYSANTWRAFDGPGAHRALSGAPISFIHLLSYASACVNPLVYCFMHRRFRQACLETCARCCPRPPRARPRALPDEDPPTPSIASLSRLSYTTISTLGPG

[2] = target: T1, human cholecystokinin-2 receptor (CCK-2R); assay: In vitro receptor binding to CCK-2R, SPA displacement of [125I]-CCK-8s from plasma membranes
[3] = target: T2, human cholecystokinin-1 receptor (CCK-1R) (Homo sapiens, UniProt P32238); assay: In vitro potency on CCK-1R, whole cell functional assay (IP1 accumulation, IP-One HTRF); format: cell-based
T2 construct: host or cells: 1321-N1 cells
T2 sequence (P32238 1-428): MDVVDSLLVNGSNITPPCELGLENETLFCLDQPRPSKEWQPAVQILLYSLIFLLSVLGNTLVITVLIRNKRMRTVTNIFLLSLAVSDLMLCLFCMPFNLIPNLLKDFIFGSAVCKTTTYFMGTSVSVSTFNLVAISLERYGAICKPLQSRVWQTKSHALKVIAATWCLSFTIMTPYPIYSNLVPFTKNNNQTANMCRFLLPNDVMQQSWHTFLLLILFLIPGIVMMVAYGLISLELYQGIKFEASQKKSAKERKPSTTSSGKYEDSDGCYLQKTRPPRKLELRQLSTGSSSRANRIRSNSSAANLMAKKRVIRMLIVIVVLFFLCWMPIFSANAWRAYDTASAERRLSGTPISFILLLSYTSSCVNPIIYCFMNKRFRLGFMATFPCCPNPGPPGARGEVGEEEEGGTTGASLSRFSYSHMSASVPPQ

[4] = 1321-N1 cells stably expressing CCK-2R, IP1 accumulation, highest dose tested 1×10^6 pM, read-out: EC50 (CCK-2R)
[5] = 1321-N1 cells stably expressing CCK-1R, IP1 accumulation, average of min. three replicates, read-out: EC50 (CCK-1R)
[6] = displacement of [125I]-CCK-8s, plasma membranes of 1321-N1 cells expressing CCK-2R, highest dose tested 1×10^7 pM, read-out: IC50 (CCK-2R)

EC50 [1, 4] [nM] | EC50 [3, 5] [nM] | IC50 [2, 6] [nM] | Structure (SMILES) | IC50 [2] [nM] | EC50 [3] [nM] | EC50 [1] [nM]
270 | 0.21 | 880 | CCCC[C@H](NC(=O)[C@H](Cc1c[nH]c2ccccc12)NC(=O)CNC(=O)[C@H](CCCNC(=N)N)NC(=O)[C@H](Cc1ccc(OS(=O)(=O)O)cc1)NC(=O)[C@H](CC(=O)O)NC(=O)COCCOCCNC(=O)COCCOCCNC(=O)CC[C@H](NC(=O)CCCCCCCCCCCCCCCCC(=O)O)C(=O)O)C(=O)N(C)[C@H](CC(=O)O)C(=O)N(C)[C@@H](Cc1ccccc1)C(N)=O [Example 17, 2-[2-[2-[[2-[2-[2-[[(4S)-4-Carboxy-4-(17-carboxyheptadecanoylamino)butanoyl]amino]ethoxy]ethoxy]acetyl]amino]ethoxy]ethoxy]acetyl-Asp-sTyr-Arg-Gly-Trp-Nle-DMeAsp-MePhe-amide] ({C18 diacid-γGlu-AEEA-AEEA}-D[sY]RGW[Nle][dNMeD][NMeF]-NH2) |  |  | 
 |  |  | CCCC[C@H](NC(=O)[C@H](Cc1ccc(CS(=O)(=O)O)cc1)NC(=O)[C@H](CC(=O)O)NC(=O)COCCOCCNC(=O)[C@H](CCCCN)NC(=O)COCCOCCNC(=O)COCCOCCNC(=O)CC[C@H](NC(=O)CCCCCCCCCCCCCCCCC(=O)O)C(=O)O)C(=O)NCC(=O)N[C@@H](Cc1c[nH]c2ccccc12)C(=O)N[C@@H](CCCC)C(=O)N(C)[C@H](CC(=O)O)C(=O)N(C)[C@@H](Cc1ccccc1)C(N)=O [Example 19, 2-[2-[2-[[2-[2-[2-[[(4S)-4-Carboxy-4-(17-carboxyheptadecanoylamino)butanoyl]amino]ethoxy]ethoxy]acetyl]amino]ethoxy]ethoxy]acetyl-Lys-2-[2-(2-aminoethoxy)ethoxy]acetyl-Asp-Phe(4-sulfomethyl)-Nle-Gly-Trp-Nle-DMeAsp-MePhe-amide] ({C18 diacid-γGlu-AEEA-AEEA}-K[AEEA]D[Phe(4-CH2SO3H)][Nle]GW[Nle][dNMeD][NMeF]-NH2) |  | 0.21 | 
> 1000 | 0.25 | > 10000 | CCCC[C@H](NC(=O)[C@H](Cc1ccc(CS(=O)(=O)O)cc1)NC(=O)[C@@H](N)CC(=O)O)C(=O)NCC(=O)N[C@@H](Cc1c[nH]c2ccccc12)C(=O)N[C@@H](CCCC)C(=O)N(C)[C@H](CC(=O)O)C(=O)N(C)[C@@H](Cc1ccccc1)C(N)=O [Example 55, Asp-Phe(4-sulfomethyl)-Nle-Gly-Trp-Nle-DMeAsp-MePhe-amide] (H-D[Phe(4-CH2SO3H)][Nle]GW[Nle][dNMeD][NMeF]-NH2) |  |  | 
> 1000 | 0.21 | > 10000 | CCCC[C@H](NC(=O)[C@H](Cc1c[nH]c2ccccc12)NC(=O)CNC(=O)[C@H](CC(C)C)NC(=O)[C@H](Cc1ccc(OS(=O)(=O)O)cc1)NC(=O)[C@@H](N)CC(=O)O)C(=O)N(C)[C@H](CC(=O)O)C(=O)N[C@@H](Cc1ccccc1)C(N)=O [Example 58, Asp-sTyr-Leu-Gly-Trp-Nle-DMeAsp-Phe-amide] |  |  | 
 |  |  | CC(C)C[C@H](NC(=O)[C@H](Cc1ccc(OS(=O)(=O)O)cc1)NC(=O)[C@@H](N)CC(=O)O)C(=O)NCC(=O)N[C@@H](Cc1c[nH]c2ccccc12)C(=O)N[C@@H](CC(C)C)C(=O)N(C)[C@H](CC(=O)O)C(=O)N(C)[C@@H](Cc1ccccc1)C(N)=O [Example 64, Asp-sTyr-Leu-Gly-Trp-Leu-DMeAsp-MePhe-amide] | > 10000 | 0.25 | > 1000
 | 0.21 |  | CCCC[C@H](NC(=O)[C@H](Cc1c[nH]c2ccccc12)NC(=O)CNC(=O)[C@H](CCCNC(=N)N)NC(=O)[C@H](Cc1ccc(OS(=O)(=O)O)cc1)NC(=O)[C@@H](N)CC(=O)O)C(=O)N(C)[C@H](CC(=O)O)C(=O)N(C)[C@@H](Cc1ccccc1)C(N)=O [Example 68, Asp-sTyr-Arg-Gly-Trp-Nle-DMeAsp-MePhe-amide] (H-D[sY]RGW[Nle][dNMeD][NMeF]-NH2) |  |  | 
> 1000 | 0.19 | > 10000 | CCCC[C@H](NC(=O)[C@H](Cc1c[nH]c2ccccc12)NC(=O)CNC(=O)[C@@H]1CCCN1C(=O)[C@H](Cc1ccc(OS(=O)(=O)O)cc1)NC(=O)[C@@H](N)CC(=O)O)C(=O)N(C)[C@H](CC(=O)O)C(=O)N(C)[C@@H](Cc1ccccc1)C(N)=O [Example 69, Asp-sTyr-Pro-Gly-Trp-Nle-DMeAsp-MePhe-amide] (H-D[sY]PGW[Nle][dNMeD][NMeF]-NH2) |  |  | 
920 | 0.21 | > 10000 | CCCC[C@H](NC(=O)[C@H](Cc1c[nH]c2ccccc12)NC(=O)CNC(=O)[C@H](CC(C)C)NC(=O)[C@H](Cc1ccc(OS(=O)(=O)O)cc1)NC(=O)[C@@H](N)CCC(=O)O)C(=O)N(C)[C@H](CC(=O)O)C(=O)N(C)[C@@H](Cc1ccccc1)C(N)=O [Example 77, Glu-sTyr-Leu-Gly-Trp-Nle-DMeAsp-MePhe-amide] (H-E[sY]LGW[Nle][dNMeD][NMeF]-NH2) |  |  | 
> 1000 | 0.19 |  | CCCC[C@H](NC(=O)[C@H](Cc1c[nH]c2ccccc12)NC(=O)CNC(=O)[C@H](CO)NC(=O)[C@H](Cc1ccc(OS(=O)(=O)O)cc1)NC(=O)[C@@H](N)CC(=O)O)C(=O)N(C)[C@H](CC(=O)O)C(=O)N(C)[C@@H](Cc1ccccc1)C(N)=O [Example 79, Asp-sTyr-Ser-Gly-Trp-Nle-DMeAsp-MePhe-amide] (H-D[sY]SGW[Nle][dNMeD][NMeF]-NH2) |  |  | 
> 1000 | 0.16 | > 10000 | CCCC[C@H](NC(=O)[C@H](Cc1c[nH]c2ccccc12)NC(=O)CNC(=O)[C@H](C)NC(=O)[C@H](Cc1ccc(OS(=O)(=O)O)cc1)NC(=O)[C@@H](N)CC(=O)O)C(=O)N(C)[C@H](CC(=O)O)C(=O)N(C)[C@@H](Cc1ccccc1)C(N)=O [Example 80, Asp-sTyr-Ala-Gly-Trp-Nle-DMeAsp-MePhe-amide] (H-D[sY]AGW[Nle][dNMeD][NMeF]-NH2) |  |  | 

Structure (SMILES) | EC50 [1, 4] [nM] | EC50 [3, 5] [nM] | IC50 [2, 6] [nM] | IC50 [2] [nM] | EC50 [3] [nM] | EC50 [1] [nM]
CC(C)C[C@H](NC(=O)[C@H](Cc1ccc(OS(=O)(=O)O)cc1)NC(=O)[C@H](CC(=O)O)NC(=O)COCCOCCNC(=O)COCCOCCNC(=O)CC[C@H](NC(=O)CCCCCCCCCCCCCCCCC(=O)O)C(=O)O)C(=O)NCC(=O)N[C@@H](Cc1c[nH]c2ccccc12)C(=O)N[C@@H](CCS(C)(=O)=O)C(=O)N(C)[C@H](CC(=O)O)C(=O)N(C)[C@@H](Cc1ccccc1)C(N)=O [Example 12, 2-[2-[2-[[2-[2-[2-[[(4S)-4-Carboxy-4-(17-carboxyheptadecanoylamino)butanoyl]amino]ethoxy]ethoxy]acetyl]amino]ethoxy]ethoxy]acetyl-Asp-sTyr-Leu-Gly-Trp-Met(O2)-DMeAsp-MePhe-amide] ({C18 diacid-γGlu-AEEA-AEEA}-D[sY]LGW[Met(O2)][dNMeD][NMeF]-NH2) | > 1000 | 0.14 |  | > 10000 |  | 
